# Source: article PMC8421406, “C9orf72-derived arginine-rich poly-dipeptides impede phase modifiers” (Nature Communications, 2021)
# Where no end group is shown, it is not given here. MBP = maltose-binding protein; HA = HA epitope tag
# Experiments:
# [1] = test system: MBP:FUS (full-length FUS droplets) / Kapβ2; assay: Turbidity assay of FUS droplet formation (OD 395 nm); type: biochemical; details: equimolar poly-dipeptide and Kapβ2 (8 μM)
# Kapβ2 [2] = assay: Pull-down (on-column) binding assay, Kapβ2; details: purified recombinant proteins, 20 mM HEPES pH 7.4, 150 mM NaCl, equal molar, 20–30 min
# Text: (§1) Unbound proteins were washed three times with the buffer.
# BSA = assay: Pull-down binding assay, BSA control; details: GST:PR18 on beads
# Text: as §1
# EGFP = details: GST:PR18 on beads
# Protocol: (§2) Four micrograms of GST proteins were immobilized on 30 μL of beads. […] Unbound proteins were washed three times with the buffer. Bound proteins and unbound proteins were separated by SDS-polyacrylamide gel electrophoresis and stained with Coomassie Brilliant Blue.
# MBP = details: GST:PR18 on beads
# Protocol: as §2
# Lysozyme = assay: Pull-down binding assay, Lysozyme control; details: GST:PR18 on beads
# Text: as §1
# endogenous Kapβ2 = assay: Immunoprecipitation from HeLa cells; type: binding; details: expressed in HeLa cells; cytosol extract, Streptavidin Mag Sepharose
# Protocol: The pcDNA5/FRT/TO-HA:SBP plasmid was generated by inserting the PCR-amplified HA:SBP sequence into the pcDNA5/FRT/TO vector (Thermo Fisher Scientific) between the HindIII and BamHI sites. The HA:SBP:GFP:PR20:HA plasmid was constructed by ligating the GFP:PR20:HA sequence into the pcDNA5/FRT/TO-HA-SBP between the EcoRV and XhoI sites. The HA:SBP:Kapβ2 plasmid was constructed by ligating the Kapβ2 sequence into the pcDNA5/FRT/TO-HA:SBP between the BamHI and NotI sites. HeLa cells were cultured in Dulbecco’s modified Eagle medium/10% fetal bovine serum at 37 °C with 5% CO2. Cells were transfected with plasmids using Lipofectamine 3000 (Thermo Fisher Scientific) according to the manufacturer’s instructions. HeLa cytosol extracts were prepared by Cytoplasmic Extraction buffer (CE; 10 mM HEPES pH 7.9, 60 mM KCl, 1 mM EDTA, 0.075% NP40, 1 mM DTT, and cOmplete™ EDTA-free protease inhibitor [Sigma-Aldrich]) for 10 min on ice and then separated from nuclear by centrifugation at 500 × g for 10 min. The resultant extracts were cleared by centrifugation at 20,400 × g for 10 min. The supernatant containing the HeLa cytosol extracts were mixed with the Streptavidin Mag Sepharose (GE Healthcare) and rotated at 4 °C overnight. The beads were finally washed five times with CE buffer. The anti-Kapβ2 (sc-166127, 1 : 1000) antibody was obtained from Santa Cruz Biotechnology. […]
# Importinα = assay: Pull-down binding assay, GST:Importinα; details: GST:Importinα on beads
# Text: as §1
# Kapβ2 [3] = assay: Isothermal titration calorimetry; type: binding; details: ITC, Supplementary Table 1 (not shown)
# Protocol: ITC experiments were performed with a Malvern iTC200 calorimeter (Malvern Instruments). […] ITC experiments were performed at 25 °C with 19 rounds of 2 μL injections. Data were analyzed using Origin software.
# Kapβ2 [4] = assay: Analytical ultracentrifugation; type: binding; details: 28 µM each, 25 °C, 20 mM HEPES pH 7.4, 150 mM NaCl
# Protocol: AUC measurements were conducted with ProteomeLab XL-I (Beckman Coulter). […] The solutions were filled in 1.5 mm path-length titanium cells (Nanolytics). The measurements were performed with Rayleigh-interference optics at rotor speed of 125,000 × g (at 70 mm radius). The temperature was set at 25 °C. The weight concentration distribution as a function of sedimentation coefficient c(s20,w) and frictional ratio f/f0 were computed with SEDFIT[49] and Igor Pro software. The sedimentation coefficient was normalized to be the value at 20 °C in pure water s20,w. The molecular weight M was calculated with the corresponding peak value of s20,w and f/f0[49].
# Importinβ1 = assay: Pull-down binding assay, GST:Importinβ1; details: GST:Importinβ1 on beads
# Text: as §1
substance,measurement,setting,value
GA20,Inhibition of the ability of Kapβ2 to melt FUS droplets (turbidity),[1],did not
"GST:PR18: Glutathione S-transferase fusion of PR18 (PRPRPRPRPRPRPRPRPRPRPRPRPRPRPRPRPRPR; also: GST fusion, end not given here)",Binding to Kapβ2 (pull-down),Kapβ2 [2],bound Kapβ2
same,Binding to BSA (pull-down),BSA,no interaction
same,Binding to EGFP (pull-down),EGFP,no interaction
same,Binding to MBP (pull-down),MBP,no interaction
same,Binding to Lysozyme (pull-down),Lysozyme,no interaction
HA:SBP:GFP:PR20:HA: PR20 fusion expressed from plasmid in HeLa cells ({HA-SBP-GFP}-PRPRPRPRPRPRPRPRPRPRPRPRPRPRPRPRPRPRPRPR-{HA}; not fully specified),Co-immunoprecipitation of endogenous Kapβ2,endogenous Kapβ2,interaction between endogenous Kapβ2 and HA:SBP:GFP:PR20:HA
MBP:PR8: maltose-binding protein fusion of 8 repeats of Pro-Arg ({MBP}-PRPRPRPRPRPRPRPR),Binding to Kapβ2 (pull-down),Kapβ2 [2],did not
"MBP:PR18: maltose-binding protein fusion of 18 repeats of Pro-Arg (PRPRPRPRPRPRPRPRPRPRPRPRPRPRPRPRPRPR; also: MBP fusion, end not given here)",Binding to Importinα (pull-down),Importinα,interactions
same,Binding to Kapβ2 (pull-down),Kapβ2 [2],bound Kapβ2
same,Relative binding strength to Kapβ2 vs full-length FUS,Kapβ2 [3],bound Kapβ2 more strongly than full-length FUS does
same,Complex formation with Kapβ2 (AUC),Kapβ2 [4],complex formation
same,Binding to Importinβ1 (pull-down),Importinβ1,interactions
